Laboratory results published in patent US20130058977A1, “COMPOSITIONS AND METHODS RELATED TO INDUCED TOLEROGENIC DENDRITIC CELLS EXTERNALLY LOADED WITH MHC CLASS I-RESTRICTED EPITOPES” (Selecta Biosciences, Inc., priority 2011, published 2013).

Test system: TCR transgenic OTI cells
Test: External loading of MHC Class I-restricted epitopes onto itDCs, read out as Phospho-Zap-70 in OTI cells
Format: cell-based
Conditions: dendritic cells externally loaded on ice for 30 minutes; mixed with OTI cells for 30 min at 37 C; pZap70 staining
Experimental: Dendritic cells were externally loaded on ice for 30 minutes with MHC Class I-restricted peptides from Ovalbumin recognized by TCR transgenic OTI cells. DC were washed and mixed with OTI cells for 30 min in complete media at 37 C, 5% CO2. Cells were stained with conjugated antibodies specifically recognizing TCR. After fixation and permeabilization with paraformaldehyde and methanol, cells were labelled with monoclonal antibodies specific for the phosphorylated (activated) form of the Zeta-chain-associated protein kinase 70 (Phospho-Zap-70). Expression of pZap70 is directly proportional to the amount of stimulatory signal delivered through the TCR to T cells.

SINFEKL [MHC Class I-restricted peptide from Ovalbumin recognized by TCR transgenic OTI cells]
loading of a MHC Class I-restricted epitope onto itDCs: successful loading
